Data taken from patent US4820873A, “Pyrene derivatives” (priority 1984, dated 1989).
Where a name gives a salt, the structure may show the parent alone.

Key:
LD20 in the P388/0 test = format: in vivo, CD2-F1 mice; conditions: intraperitoneal, days 1, 5, 9; doses are on a mg/kg basis
Description: (§1) CD2-F1 mice, of the same sex, weighing 20±3 g, are used for this test. Control and test animals are injected intraperitoneally with a suspension of ~10^6 viable P388/0 tumor cells on day 0. In each test, several dose levels which bracket the LD20 of the compound are evaluated; each dose level group contains 6 animals. The test compounds are prepared either in physiologic saline containing 0.05% Tween 80 or distilled water containing 5% dextrose and are administered intraperitoneally on days 1, 5, and 9 relative to tumor implant. Doses are on a mg/kg basis according to individual animals' body weights. The day of death for each animal is recorded, the median identified for each group and the ratios of median survival time for treated (T)/control (C) groups are calculated. The criterion for activity is T/C×100≥120%.

P388/0 tumor cells = test: Lymphocytic Leukemia P388/0 Test; format: in vivo, CD2-F1 mice; conditions: median survival time; intraperitoneal, days 1, 5, 9; active if ≥120%; Optimal Dose (mg/kg): 2A 250; 2B 450; 3 120; 4 200; 5A 303; 6 366; 7 220; 8 300; 1A 300; 10 198; 11 300; 13 220; 15 555; 16 1013; 17B 250; 18 300; 19 40; 20G 125; 21C 168; 22D 180; 23B 18O
From the text: (§2) Methods for evaluating the antitumor activity of these compounds are essentially those used in the Tumor Panel by the Development Therapeutics Program, Division of Cancer Treatment, National Cancer Institute, A. Goldin, et al., Methods in Cancer Research, Vol. XVI, p. 165, Academic Press (1979). Some modifications in dose level and schedule have been made to increase the testing efficiency.
as §1

Lewis Lung Carcinoma = Lewis Lung Carcinoma Test; format: in vivo, mouse (BD-F1 mice; tumor from C57B1/6 mouse); conditions: 150 mg/kg; administered as in P388/0 protocol; active if ≥140%
From the text: as §2
This tumor arose spontaneously in the lung of a C57B1/6 mouse and is maintained by subcutaneous passage in that strain. The solid tumor is excised aseptically and placed in sterile saline. Pieces of viable tumor tissue are minced finely with scissors and forced through a 200 mesh stainless steel screen to disaggregate the tumor cells into a suspension. 10^6 Viable cells and injected intravenously into the tail vein of BD-F1, mice of the same sex weighing 20±3 g. In each test, several dose levels which bracket the LD20 for the compound are evaluated. Ten animals are included in each dose level group, and twenty animals in the untreated control group. The test compounds are prepared and aministered as in the P388/0 protocol. The day of death for each animal is recorded, the median identified for each group and the ratios of median survival time for treated (T)/control (C) groups are calculated. The criterion for activity is T/C×100≥140%.

Trichomonas vaginalis = test: Antiprotozoal testing, Trichomonas vaginalis (in vitro); format: cell-based; conditions: 40 mg/L, Stenton or Modified Diamond's medium, read-out: Result (screen code, inhibition)
From the text: Antiprotozoal testing against Trichomonas vaginalis was done using methods outlined by R. M. Michaels in Advances in Chemotherapy, 3, 39-108 (1968).
(Stenton or Modified Diamond's medium)

[1] = tested on: Candida albicans (CN1863); test: Antifungal screening, Candida albicans, broth and agar dilution assays; format: cell-based; conditions: Medium: Wellcotest sensitivity test agar plus 7% lysed horse blood
From the text: Antifungal testing against Candida albicans (CN1863) was done with slight modifications using a combination of broth and agar dilution assays as outlined in Laboratory Handbook of Medical Mycology, Chapter 6, pages 441-446, M. R. McGinnis, Academic Press, New York, NY, 1980.
Medium: Wellcotest* sensitivity test agar plus 7% lysed horse blood.

[2] = tested on: Mycoplasma smegmatis (S3264); test: Antibacterial screening, Mycoplasma smegmatis, agar dilution assay; format: cell-based
From the text: Antibacterial testing against Mycoplasma smegmatis (S3264) and Streptococcus pyogens (CN10) was done with slight modifications using standard agar dilution assays as outlined in Manual of Clinical Microbiology, Second Ed., E. H. Lennette, E. H. Spaulding and J. P. Truant Eds., American Society for Microbiology, Washington, DC, 1974.

L1210 cells = test: Lymphocytic Leukemia L1210 Test; format: in vivo, CD-2-F1 mouse; conditions: 150 mg/kg; protocol as P388/0 (intraperitoneal, days 1, 5, 9); active if ≥125%
From the text: as §2, §1
The protocol for this test is identical to that for P388/0, except that the number of L1210 cells implanted on day 0 is ~105/mouse. […]

[3] = tested on: Nippostrongylus brasiliensis (Immature - free living stages); test: Anthelmintic screening, Nippostrongylus brasiliensis; format: cell-based
From the text: Anthelmintic testing against Nippostrongylus brasiliensis was done using methods as outlined in D. C. Jenkins, R. Armitage, and T. S. Carrington, Zetschrift fur Parasitenkunde 63, 261-269 (1980).

LD50 Tests = conditions: in vivo; IP single dose - CD1 Male Mouse
From the text: |(IP single dose - CD1 Male Mouse)

Compound: 2-((6-Bromo-1-pyrenylmethyl)amino)-2-methyl-1,3-propanediol hydrochloride and 2-((8-Bromo-1-pyrenylmethyl)amino)-2-methyl-1,3-propanediol hydrochloride [Example 17B]
- LD20 (LD20 in the P388/0 test): 557
- T/C × 100% (Excluding 30 Day Survivors) (P388/0 tumor cells): +135%

Compound: CC(CO)(CO)NCc1ccc2ccc3cccc4ccc1c2c34 [Example 1B, 2-methyl-2-((1-pyrenylmethyl)amino)-1,3-propanediol methanesulfonate]
- T/C × 100% Excluding 60 day Survivors (Lewis Lung Carcinoma): 208%

Compound: CC(CO)(CO)NCc1ccc2ccc3cccc4ccc1c2c34 [Example 1A, 2-methyl-2-((1-pyrenylmethyl)amino)-1,3-propanediol hydrochloride]
- inhibition at 40 µg/mL (Trichomonas vaginalis): 76 to 100%
- MIC [1]: 50 µg/mL
- MIC [2]: ≤ 5 µg/mL
- LD20 (LD20 in the P388/0 test): 375
- T/C × 100% Excluding 30 day Survivors (L1210 cells): +129%
- MIC [3]: 50 µg/mL
- LD50 (LD50 Tests): 350 mg/kg
